# Source: PMC11796312, “Multifunctional, Fluorene‐Based Modulator of Cholinergic and GABAergic Neurotransmission as a Novel Drug Candidate for Palliative Treatment of Alzheimer's Disease” (Angewandte Chemie (International Ed. in English), 2024)
# Entries after “also recorded” stand apart in the source; their conditions may differ.
# Key:
# mGAT1 = mGAT1 (Mus musculus, UniProt P31648); experiment: MS Binding Assay with NO 711 as marker
# mGAT4 = molecular target: T1, mGAT4 (Mus musculus, UniProt P31650); experiment: [3H]GABA uptake assay, mGAT4; format: cell-based
# T1 sequence (P31650 1-627): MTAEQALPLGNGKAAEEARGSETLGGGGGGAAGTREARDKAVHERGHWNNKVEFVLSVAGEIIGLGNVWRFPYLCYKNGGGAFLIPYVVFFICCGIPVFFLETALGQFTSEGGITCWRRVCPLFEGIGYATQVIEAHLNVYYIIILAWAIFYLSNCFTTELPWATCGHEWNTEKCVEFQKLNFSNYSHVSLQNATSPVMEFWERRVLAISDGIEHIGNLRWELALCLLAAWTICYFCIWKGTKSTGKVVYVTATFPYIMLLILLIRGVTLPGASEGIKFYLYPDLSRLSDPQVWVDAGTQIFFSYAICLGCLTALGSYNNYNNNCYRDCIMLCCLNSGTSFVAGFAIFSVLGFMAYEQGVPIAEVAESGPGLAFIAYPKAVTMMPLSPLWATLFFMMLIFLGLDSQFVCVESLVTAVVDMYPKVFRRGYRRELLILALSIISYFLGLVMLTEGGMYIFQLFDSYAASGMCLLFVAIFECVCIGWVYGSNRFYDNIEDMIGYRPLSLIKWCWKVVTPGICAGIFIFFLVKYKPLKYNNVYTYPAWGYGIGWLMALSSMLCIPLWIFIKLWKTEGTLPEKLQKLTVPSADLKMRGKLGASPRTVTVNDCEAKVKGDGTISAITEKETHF
# mice = experiment: Elevated plus maze (EPM); format: in vivo; details: vs control
# Description: Animals and housing conditions
# In all pharmacodynamic in vivo experiments, except for the Barnes maze (BM) task, adult male Albino Swiss (CD-1) mice weighing between 18 and 22 g and purchased from the Animal Breeding Farm of the Faculty of Pharmacy, Jagiellonian University Medical College were used. In BM task, C57BL/6J mice of the same weight (Animalab, Poland) were used.
# Animals were housed in cages (10 mice per cage) at a constant temperature of 22 ± 2 °C, humidity of 55 ± 10%, and a light/dark (12:12) cycle (lights on at 7 AM). Before the experiments, the animals had unlimited access to food and water. Specified conditions for the maintenance of mice were ensured throughout the experiments, including tree bedding (Transwior, Poland) and cage enrichment (tunnels, nesting material, wooden igloos, etc.). For the behavioral test, the mice were selected randomly; each group consisted of 7-12 mice. The experiments were performed between 9 AM and 3 PM. After in vivo tests, the animals were […]
# Ethical approval statement
# The procedures for the maintenance and treatment of laboratory animals were approved by the 1st Local Ethics Committee of the Jagiellonian University in Krakow (Approvals No. […]
# of the closed arms. […] The following parameters were measured in this test: time spent in open arms of the EPM device and the number of entries to open arms. […]
# [1] = Cell viability, PrestoBlue (immunotoxicity); format: cell-based; details: mouse, 24 h, read-out: viability, immuntoxicity X [%]
# Description: The mouse microglial cells (BV-2) were cultured using standard procedures. The cells were a generous gift from professor Bozena Kaminska-Kaczmarek from Laboratory of Molecular Neurobiology, Neurobiology Center, Nencki Institute of Experimental Biology, Polish Academy of Sciences, Warsaw, Poland. The cells were cultured in Dulbecco’s Modified Eagle’s Medium - high glucose, (DMEM, Glutamx ThermoFisher ) supplemented with 10% fetal bovine serum heat inactivated (ThermoFisher), with added 100 IU/ml penicillin (Sigma Aldrich) and 100 µg/ml streptomycin (Sigma Aldrich). […]
# an area of 175 cm2 (Nunc), and incubated at 37◦C, 5% CO2. For the test of compounds with the BV-2 cells line, microglia cells were seeded on 96-well culture plate (Falcon) at a density of 2x10^4 cells per well in fresh medium. The cells were grown for 24 hours in the incubator (37°C, 5% CO2) before performing experiments. […]
# Preparation of stock solutions of tested compounds
# Stock solutions were prepared in the concentration of 10 mM for test and reference compounds. Minimum 1 mg of each tested compound was weighed and dissolved in appropriate volume of dimethyl sulfoxide. Serial dilutions were prepared in DMSO and then the diluted compounds were transferred to PBS. Before assays eventual precipitation or opalescence was checked. All experiments were performed in duplicates, in three independent experiments. Cell viability was measured after 24 hours of incubation with tested cell line.
# Cell viability was evaluated using the Presto Blue reagent (Thermo Fisher), according to the manufacturer procedures. Following 24 hours of incubation with the tested molecule, PrestoBlue reagent was added to a microplate well in an amount equal to one tenth of the remaining medium volume. The resulting mixture was incubated for 15 minutes at 37°C, and the fluorescence intensity (EX 530; EM 580 nm) was measured in the plate reader POLARstar Omega, (BMG Labtech). The results (viability values) are provided as a percentage of live cells with respect to DMSO (control sample).
# Viability values were calculated as a percentage of live cells with respect to the control sample (DMSO). The negative control was medium without cells. IC 50 was determined by […]
# nonlinear regression analysis using GraphPad Prism 9.0 software. All values are expressed as […]
# Table S10. The viability of cells. neurotoxicity immuntoxicity
# The results (viability values) are provided as a percentage of live cells with respect to DMSO (control sample)
# Table S11. The viability of cells.
smiles,measurement,setting,value
O[C@H](CNCC1CC1)[C@H](Cc1ccccc1)NC1c2ccccc2-c2ccccc21 [Compound 6],Ki,mGAT1,37.2 µM
same,IC50,mGAT4,7.76 ± 0.36 µM
same,time spent in open arms,mice; 0.1 and 1 mg/kg i.p.,prolonged time spent in open arms; also recorded: significant prolongation of time spent in the open arms
same,number of open arm entries,mice; 1 and 10 mg/kg i.p.,increased the number of open arm entries; also recorded: increased number of entries into the open arms
same,"viability at 24 h, 0.1 µM","[1]; BV-2, 0.1 µM",102%
same,"viability at 24 h, 1 µM","[1]; BV-2, 1 µM",103%
same,"viability at 24 h, 10 µM","[1]; BV-2, 10 µM",94.8%
same,"viability at 24 h, 50 µM","[1]; BV-2, 50 µM",2%
same,"viability at 24 h, 100 µM","[1]; BV-2, 100 µM, vs DMSO",1.3%
